Results on five compounds are retold here after patent US8367655B2, “Pyridoindolobenzox—and thiazepine derivatives and uses thereof” (Daya Drug Discoveries, Inc., priority 2009, dated 2013).

The target in one series is D2 receptor (Homo sapiens, UniProt P14416). Briefly: Serotonin and dopamine receptor binding: D2.
The target of the next series is T1, 5-HT2C receptor (Homo sapiens, UniProt P28335).
T1 sequence (P28335 33-458): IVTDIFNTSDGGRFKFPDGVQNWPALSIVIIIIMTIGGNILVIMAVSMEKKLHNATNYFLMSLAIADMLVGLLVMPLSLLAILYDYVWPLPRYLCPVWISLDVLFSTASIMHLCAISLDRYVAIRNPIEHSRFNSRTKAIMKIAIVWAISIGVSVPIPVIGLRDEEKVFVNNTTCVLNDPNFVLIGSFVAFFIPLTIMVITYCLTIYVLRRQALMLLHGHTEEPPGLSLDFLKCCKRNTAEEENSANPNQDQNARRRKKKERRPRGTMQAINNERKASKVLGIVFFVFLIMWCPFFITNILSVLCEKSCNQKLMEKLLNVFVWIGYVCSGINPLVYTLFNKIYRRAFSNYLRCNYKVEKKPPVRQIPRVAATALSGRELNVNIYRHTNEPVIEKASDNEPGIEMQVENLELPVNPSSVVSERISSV
Briefly: Serotonin and dopamine receptor binding: 5-HT2C.

In series [1] the test system is rats. The series can be described thus: Pilot dose-selection study (catalepsy, locomotion). The class given is in vivo.
Series [2] deals with rats. Briefly: Amphetamine-induced sensorimotor gating deficits (prepulse inhibition, PPI). The series is classed as in vivo. To be noted: 1 mg/kg ip, amphetamine 3 mg/kg ip, 120 dB pulse, 71 dB pre-pulse, p<0.01. As to the method:
Effects of compound 2 on amphetamine-induced sensorimotor gating deficits (FIG. 4 Table). Once the compound 2 dose range was determined by motor assessments, a separate group of rats were used to study PPI. Rats were treated with vehicle (75% DMSO) or DDD-016 in the DMSO vehicle; 30 min later amphetamine (3 mg/kg ip) or saline was administered, and the startle session was initiated after an additional 30 min. (The 3 mg/kg dose of amphetamine is sufficient to induced robust deficits in PPI; 1 mg/kg is subtrheshold; data not shown.) Shown are startle data from a 120 dB pulse, preceded 100 ms by a 71 dB pre-pulse.

The next series concerns the target 5-HT2A receptor (Homo sapiens, UniProt P28223). Briefly: Serotonin and dopamine receptor binding: 5-HT2A.
Series [3] has as its system rats. Briefly: Amphetamine-induced motor activity. The class given is in vivo. Here is the method: Effects of compound 2 on amphetamine-induced motor activity (FIG. 4 Graph). All rats were habituated to the motor box for 30 min followed by injection of compound 2 or vehicle. After 30 min all rats were injected with 1 mg/kg, i.p. amphetamine (a dose that is known to elevate locomotion in rats) and their motor activity was recorded for 2 hr.

The structures appear in SMILES notation.

Sequence of 5-HT2A receptor (P28223 whole entry): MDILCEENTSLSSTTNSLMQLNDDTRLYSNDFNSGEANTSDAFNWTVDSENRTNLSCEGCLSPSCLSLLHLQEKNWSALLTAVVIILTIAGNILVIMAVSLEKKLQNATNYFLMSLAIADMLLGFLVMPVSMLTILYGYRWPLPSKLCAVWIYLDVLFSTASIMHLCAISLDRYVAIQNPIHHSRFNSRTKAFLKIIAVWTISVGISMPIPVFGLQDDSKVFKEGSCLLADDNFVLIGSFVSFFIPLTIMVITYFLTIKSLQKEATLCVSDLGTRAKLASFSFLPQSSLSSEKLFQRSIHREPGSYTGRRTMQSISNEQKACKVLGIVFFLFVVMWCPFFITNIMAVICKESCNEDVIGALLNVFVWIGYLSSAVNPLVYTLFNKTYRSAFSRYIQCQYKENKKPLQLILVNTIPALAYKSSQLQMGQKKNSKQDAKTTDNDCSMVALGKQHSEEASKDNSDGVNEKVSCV
Sequence of D2 receptor (P14416 whole entry): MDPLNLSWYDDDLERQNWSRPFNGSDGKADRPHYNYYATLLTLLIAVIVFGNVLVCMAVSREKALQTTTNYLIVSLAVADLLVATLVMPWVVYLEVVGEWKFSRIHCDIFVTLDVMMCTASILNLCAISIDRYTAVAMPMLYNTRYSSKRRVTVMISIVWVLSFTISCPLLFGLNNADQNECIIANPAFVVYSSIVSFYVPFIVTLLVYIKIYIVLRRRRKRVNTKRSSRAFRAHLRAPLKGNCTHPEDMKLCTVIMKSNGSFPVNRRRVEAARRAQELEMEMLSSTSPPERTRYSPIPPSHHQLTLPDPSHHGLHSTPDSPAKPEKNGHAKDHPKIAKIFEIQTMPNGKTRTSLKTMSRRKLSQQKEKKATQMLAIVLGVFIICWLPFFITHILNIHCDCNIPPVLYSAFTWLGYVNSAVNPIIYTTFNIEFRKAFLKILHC

For the compound `CN1CCc2c(c3cccc4c3n2-c2ccccc2CS4)C1` [Compound 2], the IC50 (as a rule, the midpoint of a concentration-inhibition curve) at D2 receptor was determined as 80 nM; on 5-HT2C receptor it was 10 nM; at 5-HT2A receptor, 1 nM. The locomotor effect entry with rats [1] (3 mg/kg, vs vehicle (75% DMSO)) is “did not differentiate from vehicle”; in the series on rats [1] (10 mg/kg), “Some locomotor reduction”. The catalepsy result in the series on rats [1] (30 mg/kg ip, without a loss of right reflex) is given as “robust catalepsy”. Besides, in the series on rats [2], the “effect on amphetamine-induced % PPI deficit” value is “blunted this deficit”. For the same compound, the “horizontal activity, comparison of doses” value in the series on rats [3] (3 mg/kg vs 10 mg/kg, ANOVA with post hoc Newman Keuls, p<0.05) is “difference between 3 mg/kg and 10 mg/kg”. Besides, in the series with rats [3] (10 mg/kg, 30 min before 1 mg/kg i.p. amphetamine, activity recorded 2 hr), the “effect on amphetamine-induced motor activity” value is reported as “trend for 10 mg/kg of 2 to reduce the effects of amphetamine”.

On to `CN1CC[C@H]2[C@@H](C1)c1cccc3c1N2c1ccccc1CS3` [Compound 3], for which the IC50 came to 500 nM on D2 receptor, 15 nM on 5-HT2C receptor and 5 nM on 5-HT2A receptor.

Take `CN1CC[C@@H]2[C@@H](C1)c1cccc3c1N2c1ccccc1CS3` [Compound 4]: the IC50 turned out to be 20 nM on D2 receptor, 5 nM at 5-HT2C receptor and 3 nM at 5-HT2A receptor. On 5-HT2A receptor (stated jointly for 5-HT2A, 5-HT2C and D2 receptors), the “receptor binding activity (in words)” value was “most potent amongst all”.

On to `O=C(CCCN1CCc2c(c3cccc4c3n2-c2ccccc2CS4)C1)c1ccc(F)cc1` [Compound 6], for which the IC50 at D2 receptor was 8 nM; at 5-HT2C receptor, 80 nM; at 5-HT2A receptor, 5 nM.

Turning to `CN1CCc2c(c3cccc4c3n2-c2ccccc2CO4)C1` [Compound 9], the IC50 at D2 receptor came out at 500 nM; at 5-HT2C receptor, 50 nM; at 5-HT2A receptor, 8 nM.
